Patent US8314071B2, “Bioactive molecules from co-cultivation of microbes” (Massachusetts Institute of Technology, priority 2007, dated 2012)

Assays:
Staphylococcus aureus = test: paper disk diffusion, Staphylococcus aureus; format: cell-based; details: paper disk (6 mm in diameter) containing 30 μg on agar plate
Procedure: (§1) No evidence of activity against eukaryotes, such as S. cerevisiae or cytotoxicity against human leukemia (HL-60) was observed.
(§2) Antimicrobial activity was measured by the conventional paper disk diffusion method. See Bauer, A. W.; Kirby, W. M.; Sherris, J. C.; Turck, M. Am. J. Clin. Pathol. 1966, 45, 493-96; and Hachem, C. Y.; Clarridge, J. E.; Reddy, R.; Flamm, R.; Evans, D. G.; Tanaka, S. K.; Graham, D. Y. Diagn. Microbiol. Infect. Dis. 1996, 24, 37-41. The bioactive fractions during the purification procedures were confirmed by activity against Streptomyces padanus, while pure rhodostreptomycins were tested for activity against S. padanus, Escherichia coli, Staphylococcus aureus, Bacillus subtilis, Helicobacter pylori and Saccharomyces cerevisiae. In this method, each paper disk (Whatman AA Discs, 6 mm) containing the extract or 30 μg of the pure compounds was placed directly onto an agar plate that had been freshly inoculated with a lawn of the test organism. The activity was estimated by measuring the diameters of the inhibition zones.

Escherichia coli = test: paper disk diffusion, Escherichia coli; format: cell-based; details: paper disk (6 mm in diameter) containing 30 μg on agar plate
Procedure: as §1, §2

solubility in solvents = format: physicochemical
Helicobacter pylori = test: paper disk diffusion, Helicobacter pylori; format: cell-based; details: paper disk (6 mm in diameter) containing 30 μg on agar plate
Procedure: as §1, §2

Streptomyces padanus = test: paper disk diffusion, Streptomyces padanus; format: cell-based; details: paper disk (6 mm in diameter) containing 30 μg on agar plate
Procedure: as §1, §2

Bacillus subtilis = test: paper disk diffusion, Bacillus subtilis; format: cell-based; details: paper disk (6 mm in diameter) containing 30 μg on agar plate
Procedure: as §1, §2

Saccharomyces cerevisiae = test: paper disk diffusion, Saccharomyces cerevisiae; format: cell-based; details: paper disk (6 mm in diameter) containing 30 μg on agar plate
Procedure: as §1, §2

[1] = test system: Gram-negative and Gram-positive bacteria; test: conventional disk assays on microbial lawns, overall; format: cell-based; details: rhodostreptomycin B (2) compared with rhodostreptomycin A (1)
Procedure: as §1, §2

| SMILES | diameter of inhibition zone (Staphylococcus aureus) | diameter of inhibition zone (Escherichia coli) | solubility in chloroform or n-hexane (solubility in solvents) | solubility in water (solubility in solvents) | diameter of inhibition zone (Helicobacter pylori) | diameter of inhibition zone (Streptomyces padanus) | diameter of inhibition zone (Bacillus subtilis) | diameter of inhibition zone (Saccharomyces cerevisiae) | activity relative to the other isomer [1] |
| --- | --- | --- | --- | --- | --- | --- | --- | --- | --- |
| CN[C@@H]1[C@H](O[C@H]2[C@H](O[C@H]3[C@H](O)[C@@H](O)[C@H](N=C(N)N)[C@@H](O)[C@@H]3N=C(N)N)O[C@H](C)[C@@]23OC(=O)N[C@H]3O)O[C@@H](CO)[C@H](O)[C@H]1O [Rhodostreptomycin 1, Rhodostreptomycin A] | 9 mm | 8 mm | not in chloroform or n-hexane | highly soluble in water | 10 mm | 15 mm | 8 mm | 0 mm | – |
| CN[C@@H]1[C@H](O[C@H]2[C@H](O[C@H]3[C@H](O)[C@@H](O)[C@H](N=C(N)N)[C@@H](O)[C@@H]3N=C(N)N)O[C@H](C)[C@@]23OC(=O)N[C@@H]3O)O[C@@H](CO)[C@H](O)[C@H]1O [Rhodostreptomycin 2, Rhodostreptomycin B] | 14 mm | 12 mm | not in chloroform or n-hexane | highly soluble in water | 18 mm | 18 mm | 14 mm | 0 mm | more potent |
